Test results from ChEMBL document CHEMBL1201862, “PubChem BioAssay data set” (2004).
Active and inactive are the calls of the source.

Experiments:
[1] = test system: Vero; test: cells; format: functional, cell-based; details: Chlorocebus sabaeus
[2] = target: FAD-linked sulfhydryl oxidase ALR (Homo sapiens, UniProt P55789); test: inhibitors of human ALR sulfhydryl oxidase, dose response, biochemical, H2O2 detection, luminescence, cherry-pick (AID 493248)
[3] = target: T1, Leucine aminopeptidase (Plasmodium falciparum 3D7, UniProt Q8IL11); test: P. falciparum M17LAP inhibitors, primary screen, biochemical, fluorogenic H-Leu-NHMec substrate, 1536-well (AID 1619); format: functional
T1 sequence (Q8IL11 whole entry): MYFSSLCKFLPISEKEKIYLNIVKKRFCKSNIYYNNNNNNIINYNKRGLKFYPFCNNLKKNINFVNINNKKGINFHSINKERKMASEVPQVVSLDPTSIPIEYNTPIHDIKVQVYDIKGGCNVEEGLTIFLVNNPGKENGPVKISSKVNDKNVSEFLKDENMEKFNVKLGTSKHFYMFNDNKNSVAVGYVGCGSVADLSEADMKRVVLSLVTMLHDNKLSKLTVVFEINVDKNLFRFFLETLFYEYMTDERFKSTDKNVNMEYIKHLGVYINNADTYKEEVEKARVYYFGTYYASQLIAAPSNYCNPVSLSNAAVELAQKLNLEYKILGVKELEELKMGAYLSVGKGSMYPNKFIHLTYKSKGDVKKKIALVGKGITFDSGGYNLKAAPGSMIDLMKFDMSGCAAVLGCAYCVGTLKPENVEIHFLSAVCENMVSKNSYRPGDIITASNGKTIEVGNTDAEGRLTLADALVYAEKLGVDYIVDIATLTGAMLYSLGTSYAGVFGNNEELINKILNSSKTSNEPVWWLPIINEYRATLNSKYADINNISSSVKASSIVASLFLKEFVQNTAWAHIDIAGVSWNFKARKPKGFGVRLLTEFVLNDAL

[4] = target: T2, Coagulation factor XII (Homo sapiens, UniProt P00748); format: functional;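 note: activated factor XIIa alpha cleaving a fluorogenic AMC peptide substrate; inhibitor potency from loss of enzyme activity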
T2 sequence (P00748 whole entry): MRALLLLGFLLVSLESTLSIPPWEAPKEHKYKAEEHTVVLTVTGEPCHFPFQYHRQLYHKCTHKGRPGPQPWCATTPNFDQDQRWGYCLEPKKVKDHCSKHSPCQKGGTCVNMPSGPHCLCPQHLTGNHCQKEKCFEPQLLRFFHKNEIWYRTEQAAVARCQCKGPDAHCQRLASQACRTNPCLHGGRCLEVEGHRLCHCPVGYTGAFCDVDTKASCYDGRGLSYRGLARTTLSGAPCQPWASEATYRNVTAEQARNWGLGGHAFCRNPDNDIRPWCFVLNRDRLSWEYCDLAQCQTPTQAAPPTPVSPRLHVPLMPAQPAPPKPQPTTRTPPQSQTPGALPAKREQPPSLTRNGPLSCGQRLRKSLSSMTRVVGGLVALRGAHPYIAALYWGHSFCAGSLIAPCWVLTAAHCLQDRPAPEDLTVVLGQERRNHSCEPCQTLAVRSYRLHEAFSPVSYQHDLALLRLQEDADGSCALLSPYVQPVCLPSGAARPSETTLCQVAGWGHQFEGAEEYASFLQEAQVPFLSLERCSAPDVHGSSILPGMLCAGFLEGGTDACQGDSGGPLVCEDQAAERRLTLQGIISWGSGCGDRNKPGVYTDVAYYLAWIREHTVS

[5] = test system: Vero; test: cells; format: functional; details: Chlorocebus sabaeus
[6] = target: T3, Ubiquitin-conjugating enzyme E2 N (Homo sapiens, UniProt P61088); format: functional;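 note: Dose-response confirmation in a TR-FRET assay detecting UBC13-driven polyubiquitin chain formation, inhibition measured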
T3 sequence (P61088 whole entry): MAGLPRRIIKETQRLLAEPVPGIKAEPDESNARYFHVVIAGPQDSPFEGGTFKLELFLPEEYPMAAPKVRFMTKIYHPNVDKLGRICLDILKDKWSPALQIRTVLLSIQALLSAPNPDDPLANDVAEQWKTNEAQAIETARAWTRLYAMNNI

[7] = target: Cytochrome P450 2C9 (Homo sapiens, UniProt P11712)
[8] = target: T4, Replicative DNA helicase DnaB (Mycobacterium tuberculosis, UniProt P9WMR3); test: DnaB intein splicing inhibitors, dose response, biochemical, cell-free fluorescence (AID 449749); format: functional
T4 sequence (P9WMR3 whole entry): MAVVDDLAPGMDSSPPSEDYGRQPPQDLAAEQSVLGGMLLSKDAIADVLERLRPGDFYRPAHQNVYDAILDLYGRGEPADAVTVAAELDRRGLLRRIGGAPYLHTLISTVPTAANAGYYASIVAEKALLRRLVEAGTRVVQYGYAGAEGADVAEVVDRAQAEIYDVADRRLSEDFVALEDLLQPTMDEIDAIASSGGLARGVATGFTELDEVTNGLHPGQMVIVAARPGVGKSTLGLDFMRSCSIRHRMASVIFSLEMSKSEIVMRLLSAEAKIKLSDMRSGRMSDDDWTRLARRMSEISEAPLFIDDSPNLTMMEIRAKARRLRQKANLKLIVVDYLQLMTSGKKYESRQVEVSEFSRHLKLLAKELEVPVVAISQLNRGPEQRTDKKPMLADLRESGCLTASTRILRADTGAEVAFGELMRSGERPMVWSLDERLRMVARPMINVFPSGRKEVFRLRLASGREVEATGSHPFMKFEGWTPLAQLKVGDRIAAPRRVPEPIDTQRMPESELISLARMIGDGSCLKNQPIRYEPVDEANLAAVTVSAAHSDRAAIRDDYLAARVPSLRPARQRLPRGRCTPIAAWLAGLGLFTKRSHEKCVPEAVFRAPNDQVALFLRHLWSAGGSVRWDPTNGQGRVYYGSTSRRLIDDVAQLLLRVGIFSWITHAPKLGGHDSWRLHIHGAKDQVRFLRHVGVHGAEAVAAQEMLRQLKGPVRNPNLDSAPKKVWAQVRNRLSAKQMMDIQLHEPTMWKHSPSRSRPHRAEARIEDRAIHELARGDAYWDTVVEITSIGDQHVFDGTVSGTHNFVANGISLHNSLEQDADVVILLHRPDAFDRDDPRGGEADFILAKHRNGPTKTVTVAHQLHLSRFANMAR

[9] = target: T5, Protein RecA (Mycobacterium tuberculosis, UniProt P9WHJ3); test: Fluorescence Cell-Free Homogeneous Dose Retest to Identify Inhibitors of RecA-Intein Splicing Activity. [Related pubchem assays (depositor defined):AID2097, AID2223, AID489010, AID492950]; format: functional
T5 sequence (P9WHJ3 whole entry): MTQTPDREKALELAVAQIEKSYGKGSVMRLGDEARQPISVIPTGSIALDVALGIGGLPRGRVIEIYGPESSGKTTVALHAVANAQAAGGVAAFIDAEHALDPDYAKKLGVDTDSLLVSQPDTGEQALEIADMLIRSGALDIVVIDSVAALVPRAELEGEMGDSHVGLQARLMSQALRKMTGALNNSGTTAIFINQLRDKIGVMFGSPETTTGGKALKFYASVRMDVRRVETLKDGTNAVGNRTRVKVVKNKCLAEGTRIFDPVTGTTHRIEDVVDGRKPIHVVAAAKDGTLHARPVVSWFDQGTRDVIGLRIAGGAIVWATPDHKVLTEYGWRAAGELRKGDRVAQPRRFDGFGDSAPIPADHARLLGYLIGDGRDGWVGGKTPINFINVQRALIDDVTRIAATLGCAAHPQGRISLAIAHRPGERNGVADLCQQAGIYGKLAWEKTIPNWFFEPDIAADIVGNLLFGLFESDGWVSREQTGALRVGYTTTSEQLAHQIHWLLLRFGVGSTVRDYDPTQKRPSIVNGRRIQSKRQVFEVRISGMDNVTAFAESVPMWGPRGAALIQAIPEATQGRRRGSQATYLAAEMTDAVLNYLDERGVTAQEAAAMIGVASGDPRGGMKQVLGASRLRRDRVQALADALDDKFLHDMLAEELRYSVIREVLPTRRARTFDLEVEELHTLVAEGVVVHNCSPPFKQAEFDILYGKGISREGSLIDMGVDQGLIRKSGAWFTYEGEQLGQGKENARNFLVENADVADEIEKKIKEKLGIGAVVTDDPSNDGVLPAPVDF

[10] = Luminescence Cell-Based Dose Retest to Confirm Inhibitors of Cancer Stem Cells. [Related pubchem assays (depositor defined):AID2717, AID2721]; format: functional; details: Homo sapiens
[11] = target: Nonstructural protein 1 (Influenza A virus, UniProt Q194T2); format: functional, Influenza A virus (A/California/07/2009(H1N1))
[12] = HEp-2 cell cytotoxicity, dose response, cytotoxicity control for RSV inhibitor project, HTS (AID 2410); format: functional; details: human respiratory syncytial virus
[13] = target: Glyceraldehyde-3-phosphate dehydrogenase (Homo sapiens, UniProt P04406)
[14] = microbe, parasite or virus in culture; format: functional; details: Mycobacterium tuberculosis
[15] = test system: Vero; test: host cell cytotoxicity of antiviral hits, dose response, cytotoxicity control for West Nile virus antiviral project, secondary assay (AID 1650); format: functional; details: Chlorocebus sabaeus
[16] = test system: INS1; test: beta cell apoptosis inhibitors, cytokine rescue, dose response, luminescence, retest (AID 449756); format: functional, cell-based; details: Rattus norvegicus;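 note: cell death triggered by IL-1 beta plus TNF-alpha plus IFN-gamma mixture; protective hits raise ATP signal compared with cytokine alone wells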
[17] = target: Cytochrome P450 2C19 (Homo sapiens, UniProt P33261); test: Cytochrome panel assay with activity outcomes. Panel member name: p450-cyp2c19 Compounds with AC50 equal or less than 10 uM are considered active; format: functional; details: read-out: AC50
[18] = target: Cytochrome P450 2D6 (Homo sapiens, UniProt P10635);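 note: CYP2D6 member of a cytochrome P450 panel assay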
[19] = growth suppression of beta-catenin-knockout colon cells, dose response, cell-based, HCT116, human colon tumor (AID 1045); format: functional;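 note: HCT116 colon tumor cells with beta catenin knocked out; cells exposed to compound for 60 hours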
[20] = growth suppression of PTEN-null colon cells, dose response, cell-based, HCT116 PTEN knockout (AID 1047); format: functional;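 note: HCT116 colon tumor cells with PTEN knocked out; cells exposed to compound for 60 hours before readout; potency for loss of cell viability measured by luminescence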

Sequence of Nonstructural protein 1 (Q194T2 whole entry): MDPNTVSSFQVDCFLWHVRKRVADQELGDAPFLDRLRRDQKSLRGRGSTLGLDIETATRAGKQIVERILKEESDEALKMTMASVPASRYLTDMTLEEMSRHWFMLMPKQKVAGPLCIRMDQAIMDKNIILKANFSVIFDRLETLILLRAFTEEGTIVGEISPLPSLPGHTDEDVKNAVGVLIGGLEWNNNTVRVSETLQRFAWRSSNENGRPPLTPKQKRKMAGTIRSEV
Sequence of FAD-linked sulfhydryl oxidase ALR (P55789 whole entry): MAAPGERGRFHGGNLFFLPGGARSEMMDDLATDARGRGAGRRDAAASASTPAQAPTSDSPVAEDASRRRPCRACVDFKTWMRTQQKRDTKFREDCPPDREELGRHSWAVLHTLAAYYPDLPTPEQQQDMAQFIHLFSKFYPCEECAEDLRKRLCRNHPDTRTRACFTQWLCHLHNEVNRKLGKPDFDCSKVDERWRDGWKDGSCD
Sequence of Glyceraldehyde-3-phosphate dehydrogenase (P04406 whole entry): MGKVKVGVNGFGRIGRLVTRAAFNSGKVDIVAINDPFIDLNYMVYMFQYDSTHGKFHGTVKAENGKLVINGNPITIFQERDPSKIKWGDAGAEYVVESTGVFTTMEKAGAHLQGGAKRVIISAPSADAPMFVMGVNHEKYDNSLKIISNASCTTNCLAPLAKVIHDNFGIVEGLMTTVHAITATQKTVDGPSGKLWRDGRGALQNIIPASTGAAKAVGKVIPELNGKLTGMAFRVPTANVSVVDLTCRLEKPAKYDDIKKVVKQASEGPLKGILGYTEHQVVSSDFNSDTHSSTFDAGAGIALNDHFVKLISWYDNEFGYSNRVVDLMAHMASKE
Sequence of Cytochrome P450 2D6 (P10635 whole entry): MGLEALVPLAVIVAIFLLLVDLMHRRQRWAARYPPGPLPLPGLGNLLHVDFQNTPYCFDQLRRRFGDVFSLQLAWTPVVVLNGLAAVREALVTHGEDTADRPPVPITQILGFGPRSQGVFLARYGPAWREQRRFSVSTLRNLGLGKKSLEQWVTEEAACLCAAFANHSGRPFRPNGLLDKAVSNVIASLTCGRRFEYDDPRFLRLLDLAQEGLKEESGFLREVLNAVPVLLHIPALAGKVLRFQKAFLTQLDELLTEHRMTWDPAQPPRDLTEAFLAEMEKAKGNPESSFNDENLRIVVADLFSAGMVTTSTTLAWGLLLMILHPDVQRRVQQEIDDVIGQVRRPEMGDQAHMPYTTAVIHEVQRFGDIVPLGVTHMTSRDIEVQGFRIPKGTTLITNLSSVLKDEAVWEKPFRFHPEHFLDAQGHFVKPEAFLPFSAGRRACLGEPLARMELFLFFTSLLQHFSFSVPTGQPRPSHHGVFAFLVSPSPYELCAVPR
Sequence of Cytochrome P450 2C9 (P11712 whole entry): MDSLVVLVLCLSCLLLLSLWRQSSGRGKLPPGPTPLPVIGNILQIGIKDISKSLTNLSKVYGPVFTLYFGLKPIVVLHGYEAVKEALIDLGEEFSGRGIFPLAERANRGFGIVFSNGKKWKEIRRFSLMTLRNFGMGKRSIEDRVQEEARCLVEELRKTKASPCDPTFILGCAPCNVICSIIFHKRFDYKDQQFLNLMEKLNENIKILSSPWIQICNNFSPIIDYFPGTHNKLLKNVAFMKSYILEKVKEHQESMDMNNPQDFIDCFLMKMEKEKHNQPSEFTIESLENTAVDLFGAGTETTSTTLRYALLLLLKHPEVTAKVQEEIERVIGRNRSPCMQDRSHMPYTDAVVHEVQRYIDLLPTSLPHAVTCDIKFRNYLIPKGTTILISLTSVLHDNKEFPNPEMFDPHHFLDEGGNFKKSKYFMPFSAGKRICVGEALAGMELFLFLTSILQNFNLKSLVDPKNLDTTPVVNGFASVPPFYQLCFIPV
Sequence of Cytochrome P450 2C19 (P33261 whole entry): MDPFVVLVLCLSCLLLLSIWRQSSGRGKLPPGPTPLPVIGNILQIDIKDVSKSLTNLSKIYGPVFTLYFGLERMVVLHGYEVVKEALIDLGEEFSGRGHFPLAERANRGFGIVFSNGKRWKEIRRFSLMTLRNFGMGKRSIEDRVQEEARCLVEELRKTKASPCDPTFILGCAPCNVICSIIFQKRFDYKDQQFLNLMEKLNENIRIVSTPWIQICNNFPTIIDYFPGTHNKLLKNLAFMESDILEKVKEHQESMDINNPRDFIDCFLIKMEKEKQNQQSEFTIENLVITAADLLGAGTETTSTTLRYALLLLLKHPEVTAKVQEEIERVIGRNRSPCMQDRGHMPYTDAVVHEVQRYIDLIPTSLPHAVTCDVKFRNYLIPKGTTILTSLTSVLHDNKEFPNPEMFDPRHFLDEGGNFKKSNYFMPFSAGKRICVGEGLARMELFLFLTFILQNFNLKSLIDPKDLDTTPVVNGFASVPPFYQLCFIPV

For Nc1nc(C2CC2)c(Sc2sc(N)nc2C2CC2)s1, the IC50 [1] was > 25 µM (active) and the AC50 [2] was 0.511 µM (active).

With Cc1nc2c([nH]1)OC(N)=C(C#N)C21CCN(Cc2ccccc2)CC1 the IC50 [3] was 63.2 µM (active).

In the case of O=[N+]([O-])c1cccc(-c2cn3c([n+]2-c2ccccc2)SCC3)c1, the IC50 [1] is reported as 5.3 µM (active).

For O=C(NCCCN1CCCC1)c1ccc2c(Cl)c3c(nc2c1)CCCC3, the IC50 [1] was > 25 µM (active), the IC50 [4] was > 50 µM (inconclusive) and the AC50 [2] was 0.01 µM (active). The CC50 [5] was > 25 µM (active).

With CCOC(=O)c1ccc(NC(=O)c2[nH]cnc2C(=O)NC2CCN(C(=O)OC(C)(C)C)CC2)cc1 the IC50 [6] was > 20 µM (inactive).

In the case of Cn1c(O)cc(=O)nc1SCC(=O)Nc1ccccc1, the IC50 [3] is reported as 17.1 µM (active) and the AC50 [7] is reported as 2.82 µM (inconclusive).

With COc1ccc(-c2nc(N3CCOCC3)nc3n[nH]c(N)c23)cc1 the IC50 [3] was 8.11 µM (active).

With CC1=NN(CCC#N)C(=O)/C1=C/c1ccc(N(C)C)cc1 the AC50 [8] was 2.79 µM (inconclusive), the EC50 [9] was 3.17 µM (active) and the IC50 [3] was 120 µM (active).

With CCCCCc1cc(=O)oc2c(C(CCN(CC)CC)c3cc(OC)c(OC)c(OC)c3)c(OC)cc(OC)c12 (configuration not stated) the IC50 [6] was > 20 µM (inactive) and the AC50 [10] was 7.71 µM (active).

In the case of COc1ccc(C2C3=C(CC(C)(C)CC3=O)Oc3ncn(Cc4ccco4)c(=N)c32)cc1 (configuration not stated), the IC50 [11] is reported as > 100 µM (active).

With CCCCN1C(=O)C2Cc3c([nH]c4ccccc34)CN2C1=S (configuration not stated) the CC50 [12] was 20.8 µM (active).

With O=C(Nc1nncs1)c1cccc(S(=O)(=O)N2CCCC2)c1 the IC50 [13] was > 100 µM (not active).

In the case of CCn1c(C)nc2cc(C(=O)OC(C(F)(F)C(F)F)C(F)(F)C(F)F)ccc21, the IC50 [1] is reported as 24.4 µM (active), the CC50 [14] is reported as > 40 µM (active) and the CC50 [5] is reported as > 25 µM (active).

In the case of COc1ccc(/C=C/C(=O)Nc2ccc3c(c2)CCC3)cc1OC, the CC50 [12] is reported as > 50 µM (active).

In the case of Cc1ccc(CNC(=O)CSc2nc3ccsc3c(=O)n2Cc2ccc(C(=O)O)cc2)cc1, the IC50 [6] is reported as > 20 µM (inactive).

For CCOc1ccc(C(C(=O)NCC2CCCO2)N(C(=O)c2snc(C(N)=O)c2N)c2ccc3c(c2)OCCO3)cc1 (configuration not stated), the IC50 [6] was > 20 µM (inactive).

In the case of O=C(c1c[nH]c2ccccc12)C(Cl)c1ccccc1 (configuration not stated), the AC50 [10] is reported as 1.74 µM (active), the CC50 [5] is reported as > 25 µM (active) and the CC50 [15] is reported as 66.6 µM (active).

With Oc1ccc(C=NNC(=S)Nc2cccnc2)nc1 the IC50 [11] was 0.992 µM (active).

For Cc1ccc2ccc3cccnc3c2n1, the IC50 [11] was 14.5 µM (active) and the AC50 [16] was 0.865 µM (active).

In the case of Cc1sc(N/N=C/c2cccnc2)nc1-c1ccccc1, the AC50 [17] is reported as 0.501 µM (inconclusive), the IC50 [1] is reported as > 25 µM (active) and the AC50 [18] is reported as 0.794 µM (inconclusive). For the same compound, the CC50 [5] was > 25 µM (active).

With CCCCOc1ccc(C(=O)N/N=C/c2ccc(OCCN3CCCCC3)c(OC)c2)cc1 the CC50 [12] was 16.1 µM (active) and the CC50 [14] was 18.9 µM (active).

For CCOC(=O)c1ccc(-c2ccc(/C=N/NC(=O)CN(c3ccccc3Br)S(C)(=O)=O)o2)cc1, the EC50 [19] was 22.5 µM (active), the CC50 [12] was > 50 µM (active) and the EC50 [20] was 17.8 µM (active).

In the case of COc1cccc(S(=O)(=O)Nc2cnc3ccccc3c2)c1, the IC50 [13] is reported as > 100 µM (not active).
